pIC50: −log10 of the molar value.
What was measured:
[1] = system: SF-268; experiment: NCI-60 anticancer screen (SRB; single dose and five doses); conditions: Homo sapiens
[2] = system: UO-31; experiment: as above; conditions: Homo sapiens
[3] = system: SR; experiment: as above; conditions: Homo sapiens
[4] = system: UACC-257; experiment: as above; conditions: Homo sapiens
[5] = system: SK-MEL-2; experiment: as above; conditions: Homo sapiens
[6] = system: OVCAR-4; experiment: as above; conditions: Homo sapiens
[7] = system: HL-60(TB); experiment: as above; conditions: Homo sapiens
[8] = system: SN12C; experiment: as above; conditions: Homo sapiens
[9] = system: SNB-75; experiment: as above
[10] = system: MCF7; experiment: as above; conditions: Homo sapiens
[11] = system: UACC-62; experiment: as above; conditions: Homo sapiens
[12] = system: DU-145; experiment: as above; conditions: Homo sapiens
[13] = system: CAKI-1; experiment: as above; conditions: Homo sapiens
[14] = system: SW-620; experiment: as above; conditions: Homo sapiens
[15] = system: LOX IMVI; experiment: as above; conditions: Homo sapiens
[16] = system: U251; experiment: as above; conditions: Homo sapiens
[17] = system: KM12; experiment: as above; conditions: Homo sapiens
[18] = system: SK-MEL-5; experiment: as above; conditions: Homo sapiens
[19] = system: T-47D; experiment: as above; conditions: Homo sapiens, T47D
[20] = system: 786-0; experiment: as above; conditions: Homo sapiens
[21] = system: HT29; experiment: as above; conditions: Homo sapiens
[22] = system: MDA-MB-435; experiment: as above; conditions: Homo sapiens
[23] = system: OVCAR-3; experiment: cells; conditions: Homo sapiens
[24] = system: HS 578T; experiment: NCI-60 anticancer screen (SRB; single dose and five doses); conditions: Homo sapiens
[25] = system: EKVX; experiment: as above; conditions: Homo sapiens
[26] = system: OVCAR-5; experiment: as above; conditions: Homo sapiens
[27] = system: K-562; experiment: as above; conditions: Homo sapiens
[28] = system: IGROV1; experiment: as above; conditions: Homo sapiens
[29] = system: MDA-MB-231/ATCC; experiment: as above; conditions: Homo sapiens
[30] = 48 h, read-out: Growth Percentage

Cc1[nH]c(=S)sc1C(=O)/C=C/c1ccc(Cl)cc1 [2f, (E)-3-(4-Chlorophenyl)-1-(4-Methyl-2-Thioxo-2,3-Dihydrothiazol-5-yl)Prop-2-En-1-One]
GI50 ([1]; SF-268): 12 µM
pIC50 ([1]; SF-268): 4.61
activity at 10 µM ([1]; SF-268, 48 h, read-out: Growth Percentage): 67.9%
CC50 ([1]; SF-268, read-out: LC50): 64.6 µM
IC (TGI) ([1]; SF-268, read-out: TGI): 28.2 µM
GI50 ([2]; UO-31): 4.07 µM
pIC50 ([2]; UO-31): 4.95
activity at 10 µM ([2]; UO-31, 48 h, read-out: Growth Percentage): 30.4%
IC (TGI) ([2]; UO-31, read-out: TGI): 18.2 µM
GI50 [3]: 3.55 µM
pIC50 [3]: 5.27
CC50 ([3]; read-out: LC50): > 100 µM
IC (TGI) ([3]; read-out: TGI): 56.2 µM
GI50 ([4]; UACC-257): 13.8 µM
pIC50 ([4]; UACC-257): 4.57
activity at 10 µM ([4]; UACC-257, 48 h, read-out: Growth Percentage): 66.8%
CC50 ([4]; UACC-257, read-out: LC50): 56.2 µM
IC (TGI) ([4]; UACC-257, read-out: TGI): 27.5 µM
GI50 ([5]; SK-MEL-2): 13.8 µM
pIC50 ([5]; SK-MEL-2): 4.56
activity at 10 µM ([5]; SK-MEL-2, 48 h, read-out: Growth Percentage): 58.4%
CC50 ([5]; SK-MEL-2, read-out: LC50): 56.2 µM
IC (TGI) ([5]; SK-MEL-2, read-out: TGI): 28.2 µM
GI50 ([6]; OVCAR-4): 13.8 µM
pIC50 ([6]; OVCAR-4): 4.60
activity at 10 µM ([6]; OVCAR-4, 48 h, read-out: Growth Percentage): 76.3%
CC50 ([6]; OVCAR-4, read-out: LC50): 55 µM
IC (TGI) ([6]; OVCAR-4, read-out: TGI): 27.5 µM
GI50 ([7]; HL-60): 3.55 µM
pIC50 ([7]; HL-60): 5.23
activity at 10 µM ([7]; HL-60, 48 h, read-out: Growth Percentage): -0.98%
CC50 ([7]; HL-60, read-out: LC50): > 100 µM
IC (TGI) ([7]; HL-60, read-out: TGI): 38 µM
GI50 [8]: 4.9 µM
pIC50 [8]: 4.97
activity at 10 µM [8, 30]: 4.62%
CC50 ([8]; read-out: LC50): 43.6 µM
IC (TGI) ([8]; read-out: TGI): 18.2 µM
GI50 ([9]; Homo sapiens, SNB-75): 2.19 µM
pIC50 ([9]; Homo sapiens, SNB-75): 5.07
CC50 ([9]; Homo sapiens, SNB-75, read-out: LC50): 28.8 µM
TGI ([9]; five-dose, CNS Cancer SNB-75): 6.76 µM
GI50 ([10]; MCF7): 3.16 µM
pIC50 ([10]; MCF7): 5.33
activity at 10 µM ([10]; MCF7, 48 h, read-out: Growth Percentage): 4.86%
CC50 ([10]; MCF7, read-out: LC50): 43.6 µM
IC (TGI) ([10]; MCF7, read-out: TGI): 13.2 µM
GI50 ([11]; UACC-62): 9.77 µM
pIC50 ([11]; UACC-62): 4.77
activity at 10 µM ([11]; UACC-62, 48 h, read-out: Growth Percentage): 33.9%
IC (TGI) ([11]; UACC-62, read-out: TGI): 22.4 µM
GI50 ([12]; DU-145): 4.9 µM
pIC50 ([12]; DU-145): 5.05
activity at 10 µM ([12]; DU-145, 48 h, read-out: Growth Percentage): 7.29%
CC50 ([12]; DU-145, read-out: LC50): 42.7 µM
IC (TGI) ([12]; DU-145, read-out: TGI): 17.4 µM
GI50 ([13]; CAKI-1): 4.47 µM
pIC50 ([13]; CAKI-1): 5.06
activity at 10 µM ([13]; CAKI-1, 48 h, read-out: Growth Percentage): 53.2%
CC50 ([13]; CAKI-1, read-out: LC50): 43.6 µM
IC (TGI) ([13]; CAKI-1, read-out: TGI): 17.4 µM
GI50 ([14]; SW-620): 3.09 µM
pIC50 ([14]; SW-620): 5.36
activity at 10 µM ([14]; SW-620, 48 h, read-out: Growth Percentage): 8.02%
CC50 ([14]; SW-620, read-out: LC50): 38.9 µM
IC (TGI) ([14]; SW-620, read-out: TGI): 11.2 µM
GI50 [15]: 3.39 µM
pIC50 [15]: 5.35
activity at 10 µM [15, 30]: -48.1%
CC50 ([15]; read-out: LC50): 38 µM
IC (TGI) ([15]; read-out: TGI): 12 µM
GI50 ([16]; U-251): 3.39 µM
pIC50 ([16]; U-251): 5.32
activity at 10 µM ([16]; U-251, 48 h, read-out: Growth Percentage): 11.3%
CC50 ([16]; U-251, read-out: LC50): 40.7 µM
IC (TGI) ([16]; U-251, read-out: TGI): 13.2 µM
GI50 ([17]; KM12): 4.17 µM
pIC50 ([17]; KM12): 5.09
activity at 10 µM ([17]; KM12, 48 h, read-out: Growth Percentage): 6.77%
CC50 ([17]; KM12, read-out: LC50): 45.7 µM
IC (TGI) ([17]; KM12, read-out: TGI): 16.6 µM
GI50 ([18]; SK-MEL-5): 11.2 µM
pIC50 ([18]; SK-MEL-5): 4.69
activity at 10 µM ([18]; SK-MEL-5, 48 h, read-out: Growth Percentage): 28%
CC50 ([18]; SK-MEL-5, read-out: LC50): 49 µM
IC (TGI) ([18]; SK-MEL-5, read-out: TGI): 23.4 µM
GI50 [19]: 3.47 µM
pIC50 [19]: 4.85
activity at 10 µM [19, 30]: 1.38%
CC50 ([19]; read-out: LC50): 81.3 µM
IC (TGI) ([19]; read-out: TGI): 19.1 µM
GI50 ([20]; 786-0): 4.68 µM
pIC50 ([20]; 786-0): 5.11
activity at 10 µM ([20]; 786-0, 48 h, read-out: Growth Percentage): 16.6%
CC50 ([20]; 786-0, read-out: LC50): 58.9 µM
IC (TGI) ([20]; 786-0, read-out: TGI): 20.4 µM
GI50 ([21]; HT-29): 6.76 µM
pIC50 ([21]; HT-29): 5.02
activity at 10 µM ([21]; HT-29, 48 h, read-out: Growth Percentage): 31.2%
CC50 ([21]; HT-29, read-out: LC50): 53.7 µM
IC (TGI) ([21]; HT-29, read-out: TGI): 20.9 µM
GI50 ([22]; MDA-MB-435): 5.5 µM
pIC50 ([22]; MDA-MB-435): 4.96
activity at 10 µM ([22]; MDA-MB-435, 48 h, read-out: Growth Percentage): 22.5%
CC50 ([22]; MDA-MB-435, read-out: LC50): 49 µM
IC (TGI) ([22]; MDA-MB-435, read-out: TGI): 19.1 µM
GI50 ([23]; OVCAR-3): 2.82 µM
activity at 10 µM ([23]; OVCAR-3, 48 h, read-out: Growth Percentage): -24.2%
pIC50 ([23]; OVCAR-3, OVCAR-3, five doses): 5.55
pIC50 ([23]; OVCAR-3, five-dose, Ovarian Cancer OVCAR-3): 5.19
CC50 ([23]; OVCAR-3, read-out: LC50): 33.1 µM
IC (TGI) ([23]; OVCAR-3, read-out: TGI): 10.7 µM
GI50 [24]: 21.4 µM
pIC50 [24]: < 4.00
activity at 10 µM [24, 30]: 48%
CC50 ([24]; read-out: LC50): > 100 µM
IC (TGI) ([24]; read-out: TGI): 77.6 µM
GI50 [25]: 12.9 µM
pIC50 [25]: 4.62
activity at 10 µM [25, 30]: 41%
CC50 ([25]; read-out: LC50): 52.5 µM
IC (TGI) ([25]; read-out: TGI): 26.3 µM
GI50 ([26]; OVCAR-5): 17.8 µM
pIC50 ([26]; OVCAR-5): 4.49
activity at 10 µM ([26]; OVCAR-5, 48 h, read-out: Growth Percentage): 50.8%
CC50 ([26]; OVCAR-5, read-out: LC50): 60.3 µM
IC (TGI) ([26]; OVCAR-5, read-out: TGI): 33.1 µM
GI50 ([27]; K562): 3.89 µM
pIC50 ([27]; K562): 5.33
activity at 10 µM ([27]; K562, 48 h, read-out: Growth Percentage): 7.94%
CC50 ([27]; K562, read-out: LC50): > 100 µM
IC (TGI) ([27]; K562, read-out: TGI): > 100 µM
GI50 ([28]; IGROV-1): 13.2 µM
pIC50 ([28]; IGROV-1): 4.59
CC50 ([28]; IGROV-1, read-out: LC50): 93.3 µM
IC (TGI) ([28]; IGROV-1, read-out: TGI): 34.7 µM
GI50 ([29]; MDA-MB-231): 16.2 µM
pIC50 ([29]; MDA-MB-231): 4.51
activity at 10 µM ([29]; MDA-MB-231, 48 h, read-out: Growth Percentage): 39.3%
CC50 ([29]; MDA-MB-231, read-out: LC50): 61.7 µM
IC (TGI) ([29]; MDA-MB-231, read-out: TGI): 31.6 µM
